Data from PubChem BioAssay (NCI).
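Following 48 hours of exposure in 96-well plates, responses at five concentrations were used to interpolate endpoints linearly. GI50 is the concentration that inhibits growth by half. TGI marks complete inhibition of growth.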

Legend:
Assay in all cases: inhibition of tumour cell growth, NCI panel, 48 h
[1] = test system: HCC-2998 colon
[2] = test system: HT29 colon
[3] = test system: M14 melanoma
[4] = test system: HCT-15 colon
[5] = test system: K-562 leukemia
[6] = test system: LOX IMVI melanoma
[7] = test system: IGROV1 ovarian
[8] = test system: SK-MEL-5 melanoma
[9] = test system: HS 578T breast
[10] = test system: NCI-H460 lung

Row | SMILES | TGI [1] [µM] | TGI [2] [µM] | TGI [3] [µM] | TGI [4] [µM] | TGI [5] [µM] | TGI [6] [µM] | TGI [7] [µM] | TGI [8] [µM] | TGI [9] [µM] | TGI [10] [µM] | GI50 [1] [µM] | GI50 [9] [µM] | GI50 [10] [µM] | GI50 [2] [µM] | GI50 [3] [µM] | GI50 [4] [µM] | GI50 [6] [µM] | GI50 [7] [µM] | GI50 [8] [µM]
1 | COc1cccc2c1OCC1Cc3ccccc3OC21 (configuration not stated) | > 100 | > 100 | > 100 | > 100 | > 100 | 98.3 | > 100 | 30.8 | – | – | – | – | – | – | – | – | – | – | –
2 | O=C1CS(=O)(=O)C(c2cccc(Oc3ccccc3)c2)N1c1cc(Cl)ccc1Cl (configuration not stated) | 37.1 | 47.8 | 43.1 | 69.9 | > 100 | 28.2 | – | 31.2 | > 100 | 53.5 | – | – | – | – | – | – | – | – | –
3 | CC#CC(O)(C(=O)OC1CC(C)N(C)C(C)(C)C1)C1CCCC1 (configuration not stated) | > 100 | > 100 | > 100 | > 100 | > 100 | > 100 | > 100 | > 100 | – | – | – | – | – | – | – | – | – | – | –
4 | CC1(C)OC2COC3([C@@H]4OC(C)(C)O[C@@H]4CO)OC(C)(C)OC3C2O1 (some centres not stated) | > 100 | – | > 100 | > 100 | > 100 | > 100 | > 100 | > 100 | – | > 100 | – | – | – | – | – | – | – | – | –
5 | COc1ccc(NC(C)c2ccncc2)cc1 (configuration not stated) | > 100 | > 100 | > 100 | > 100 | > 100 | > 100 | – | > 100 | > 100 | > 100 | – | – | – | – | – | – | – | – | –
6 | CCN(CCCl)c1cc(CN(C)C)cc(NC(=O)c2ccc(C(=O)Nc3cccc(CN(C)C)c3)cc2)c1 | 3.05 | 6.87 | 17.7 | > 100 | 1.42 | 0.569 | 10 | – | 0.671 | 10.6 | – | – | – | – | – | – | – | – | –
7 | O=C1OC(c2ccccc2)N(C(=O)c2ccccc2)C1Cc1ccc(OCc2ccccc2)cc1 (configuration not stated) | > 100 | – | > 100 | > 100 | > 100 | > 100 | > 100 | > 100 | > 100 | > 100 | – | – | – | – | – | – | – | – | –
8 | COc1ccc(-n2nc(C)c3c(Nc4ccc(NC(=O)Nc5ccc(Cl)c(C(F)(F)F)c5)cc4)ncnc32)cc1 | 5.64 | 4.17 | 4.32 | 3.09 | – | 2.67 | 7.23 | 3.23 | 4.2 | 5.07 | 2.22 | 1.58 | 2.17 | 1.8 | 1.68 | 1.42 | 1.34 | 2.23 | 1.72
9 | c1ccc(C2CC(=NC3CCCCC3)Nc3ccccc3N2)cc1 (configuration not stated) | – | > 100 | > 100 | > 100 | > 100 | 55.2 | > 100 | 43.7 | 94.8 | > 100 | – | – | – | – | – | – | – | – | –
10 | C[C@H]1OC(=O)[C@@H]2N=NN(Cc3ccccc3)[C@H]12 | > 100 | > 100 | > 100 | > 100 | > 100 | – | – | > 100 | – | > 100 | – | – | – | – | – | – | – | – | –
11 | COP(=O)(OC)C(Nc1ccc(Cc2ccc(NC(c3ccco3)P(=O)(OC)OC)cc2)cc1)c1ccco1 (configuration not stated) | – | > 100 | > 100 | > 100 | > 100 | > 100 | > 100 | > 100 | > 100 | > 100 | – | – | – | – | – | – | – | – | –
12 | O=C(O)/C=C\C(=O)Nc1ccc(S(=O)(=O)c2ccc(NC(=O)/C=C\C(=O)O)cc2)cc1 | – | > 100 | > 100 | > 100 | > 100 | > 100 | > 100 | > 100 | – | – | – | – | – | – | – | – | – | – | –
13 | C/C(=N\Nc1nc2ccccc2s1)c1ccc2ccccc2n1 | – | > 100 | > 100 | > 100 | – | > 100 | 47.1 | > 100 | > 100 | > 100 | – | – | – | – | – | – | – | – | –
14 | O=[N+]([O-])c1cccc2c(N=Nc3ccc4ccccc4c3O)c(O)cc(S(=O)(=O)O)c12 | – | > 100 | 51.2 | > 100 | > 100 | > 100 | > 100 | > 100 | > 100 | – | – | – | – | – | – | – | – | – | –
15 | C[C@]12CC[C@@H]3c4ccc(O)cc4CC[C@H]3[C@@H]1C/C(=C\c1ccc(C#N)cc1)C2=O | > 100 | 75.2 | > 100 | > 100 | > 100 | > 100 | > 100 | > 100 | – | > 100 | – | – | – | – | – | – | – | – | –
16 | CSc1nc2c(ncn2C2OC(CO)C(O)C(O)C2O)c(=O)[nH]1 (configuration not stated) | > 100 | > 100 | – | > 100 | > 100 | > 100 | > 100 | > 100 | – | > 100 | – | – | – | – | – | – | – | – | –
17 | O=[N+]([O-])/C(Cl)=C(\NCCN/C(C(Cl)=C(Cl)Cl)=C(/Cl)[N+](=O)[O-])C(Cl)=C(Cl)Cl | > 100 | – | > 100 | > 100 | > 100 | 37.8 | > 100 | – | – | > 100 | – | – | – | – | – | – | – | – | –
18 | Cc1cccc(/C(Br)=C2/OC(=O)c3ccccc32)c1 | > 100 | > 100 | > 100 | > 100 | – | – | > 100 | > 100 | > 100 | > 100 | – | – | – | – | – | – | – | – | –
19 | C[n+]1c(/C=C/c2ccc(O)c3ncccc23)[se]c2ccccc21 | – | 20.7 | 17.8 | 17.6 | 44.4 | 9.08 | > 37.8 | 26.5 | 63.5 | 9.34 | – | – | – | – | – | – | – | – | –
20 | COC(=O)N1N=C(c2ccccc2)C1c1ccccc1 (configuration not stated) | > 100 | > 100 | > 100 | > 100 | 72.7 | 82.8 | – | – | > 100 | > 100 | – | – | – | – | – | – | – | – | –
21 | CON(C)C(=O)C1CCCO1 (configuration not stated) | – | > 100 | > 100 | > 100 | > 100 | > 100 | > 100 | > 100 | > 100 | > 100 | – | – | – | – | – | – | – | – | –
22 | O=C1C(C(O)(C(F)(F)F)C(F)(F)F)CCC1C(O)(C(F)(F)F)C(F)(F)F (configuration not stated) | – | > 29.3 | 47 | > 100 | > 100 | 10.6 | > 86 | 16.2 | 51.9 | > 100 | – | – | – | – | – | – | – | – | –
23 | O=C1C2=Nc3ccccc3C(O)(C(=O)O)N2c2ccccc21 (configuration not stated) | > 100 | 49.2 | – | > 100 | > 100 | 59.2 | > 100 | 27.5 | > 100 | 39.3 | – | – | – | – | – | – | – | – | –
